Reference: article PMC12652692, “Synthesis and In Vitro Anticancer Evaluation of Novel Phosphonium Derivatives of Chrysin” (International Journal of Molecular Sciences, 2025)

Legend:
Experiment in all cases: NCI60 one-dose screen
Type in all cases: cell-based
MOLT-4 = conditions: Homo sapiens; MOLT-4, 10 μM; read-out: Growth percent
Procedure: (§1) The screening results are presented in the Supplementary Materials (Table S1), where the cytotoxicity was determined for the 10 µM concentration. […] The negative numbers indicate significant decreases in the cell number. […] Compared to the reference chrysin (2), all phosphonium hybrids (3a–h) had significant antiproliferative activities. […] At the same time, it should be noted that more than 60% average reduction was also obtained in the case of the other examined conjugates (3a–h).
(§2) A detailed description of the NCI screening procedures, including the one-dose and five-dose tests, can be found in the Supplementary Materials, on the website of NCI [39], and in our previous work.
(§3) A detailed description of the NCI screening procedures can also be found on the website of NCI [39], and in our […]
(§4) All candidates were examined at first at a single high dose (10 μM) in the full NCI60 cell panel. The value reported for the one-dose test is growth relative to the no-drug control and relative to the time zero number of cells. This made possible the disclosure of both growth inhibition (numbers between 0 and 100) and lethality (numbers less than 0). For example, a value of 100 means no growth inhibition. A value of 20 would mean 80% growth inhibition. A value of 0 means no net growth over the course of the analysis. A value of −20 would mean 20% lethality. A value of −100 means all cells are dead. […]
(§5) concentration levels. The human tumor cell lines of the cancer screening panel were grown in RPMI 1640 medium containing 5% fetal bovine serum and 2 mM l-glutamine. Characteristically, cells were injected in 96-well microtiter plates in 0.1 mL at plating densities ranging from 5000 to 40,000 cells/well, depending on the doubling time of individual cell lines. After cell inoculation, the microtiter plates were incubated at 37 °C, 5% carbon dioxide, 95% air, and 100% relative humidity for 24 hours before the addition of tested compounds. After 24 hours, 2 plates of each cell line were fixed in situ with Cl3COOH (TCA), to represent a measurement of the cell population for each cell line at the time of drug addition (tz). Tested compounds were solubilized in DMSO at 400-fold the desired final maximum test concentration and stored frozen before application. In the course of the drug addition, an aliquot of frozen concentrate was thawed and diluted to twice the desired final maximum test concentration with a complete medium containing 50 μg mL−1 gentamicin. Additional four, 10-fold or ½ log serial dilutions were produced to furnish a total of five drug concentrations plus control. Aliquots of 0.1 mL of these different drug dilutions were added to the appropriate microtiter wells already containing 0.1 mL of medium, resulting in the required final drug concentrations.
(§6) Following drug addition, the plates were incubated at 37 °C, 5% carbon dioxide, 95% air, and 100% relative humidity for an additional 48 hours. For adherent cells, the test was finished by the addition of cold Cl3COOH. Cells were fixed in situ by the addition of 50 μL of cold 50% (w/v) Cl3COOH, and incubated at 4 °C for 1 hour. The supernatant was discarded, and the plates were washed with H2O (5×) and dried in air. Sulforhodamine B (SRB) solution (0.1 mL) at 0.4% (w/v) in 1% CH3COOH was added to each well, and plates were incubated at RT for 10 min. After staining, the unbound dye was removed by washing five times with 1% CH3COOH, and the plates were dried in the air. The bound stain is afterward solubilized with a 10 mM trizma base, and the absorbance is read on an automated plate reader at λ = 515 nm. Utilizing the seven absorbance measurements [time zero (tz), control growth (c), and test growth in the presence of the drug at the five concentration levels (ti)], the percentage growth was determined at each of the drug concentration levels. Growth inhibition (%) was calculated as:
(§7) [(ti − tz)/(c − tz)] × 100, for concentrations where ti ≥ tz (1) […]

RPMI-8226 = conditions: Homo sapiens; RPMI-8226, 10 μM; read-out: Growth percent
Procedure: as §1, §2, §3, §4, §5, §6, §7

KM12 = conditions: Homo sapiens; KM12, 10 μM; read-out: Growth percent
Procedure: as §1, §2, §3, §4, §5, §6, §7

EKVX = conditions: Homo sapiens, read-out: Growth percent
Procedure: as §1, §2, §3, §4, §5, §6, §7

SF-539 = conditions: Homo sapiens; SF-539, 10 μM; read-out: Growth percent
Procedure: as §1, §2, §3, §4, §5, §6, §7

TK-10 = conditions: Homo sapiens; TK-10, 10 μM; read-out: Growth percent
Procedure: as §1, §2, §3, §4, §5, §6, §7

LOX IMVI = conditions: Homo sapiens, read-out: Growth percent
Procedure: as §1, §2, §3, §4, §5, §6, §7

M14 = conditions: Homo sapiens; M14, 10 μM; read-out: Growth percent
Procedure: as §1, §2, §3, §4, §5, §6, §7

HOP-62 = conditions: Homo sapiens; HOP-62, 10 μM; read-out: Growth percent
Procedure: as §1, §2, §3, §4, §5, §6, §7

HCT-116 = conditions: Homo sapiens; HCT-116, 10 μM; read-out: Growth percent
Procedure: as §1, §2, §3, §4, §5, §6, §7

CAKI-1 = conditions: Homo sapiens; CAKI-1, 10 μM; read-out: Growth percent
Procedure: as §1, §2, §3, §4, §5, §6, §7

SF-295 = conditions: Homo sapiens; SF-295, 10 μM; read-out: Growth percent
Procedure: as §1, §2, §3, §4, §5, §6, §7

DU-145 = conditions: Homo sapiens; DU-145, 10 μM; read-out: Growth percent
Procedure: as §1, §2, §3, §4, §5, §6, §7

OVCAR-4 = conditions: Homo sapiens; OVCAR-4, 10 μM; read-out: Growth percent
Procedure: as §1, §2, §3, §4, §5, §6, §7

BT-549 = conditions: Homo sapiens; BT-549, 10 μM; read-out: Growth percent
Procedure: as §1, §2, §3, §4, §5, §6, §7

MDA-MB-435 = conditions: Homo sapiens; MDA-MB-435, 10 μM; read-out: Growth percent
Procedure: as §1, §2, §3, §4, §5, §6, §7

MDA-MB-468 = conditions: Homo sapiens; MDA-MB-468, 10 μM; read-out: Growth percent
Procedure: as §1, §2, §3, §4, §5, §6, §7

SF-268 = conditions: Homo sapiens; SF-268, 10 μM; read-out: Growth percent
Procedure: as §1, §2, §3, §4, §5, §6, §7

NCI/ADR-RES = conditions: Homo sapiens, read-out: Growth percent
Procedure: as §1, §2, §3, §4, §5, §6, §7

A549/ATCC = conditions: Homo sapiens, read-out: Growth percent
Procedure: as §1, §2, §3, §4, §5, §6, §7

HL-60(TB) = conditions: Homo sapiens, read-out: Growth percent
Procedure: as §1, §2, §3, §4, §5, §6, §7

SMILES | activity at 10 µM (MOLT-4) [%] | activity at 10 µM (RPMI-8226) [%] | activity at 10 µM (KM12) [%] | activity at 10 µM (EKVX) [%] | activity at 10 µM (SF-539) [%] | activity at 10 µM (TK-10) [%] | activity at 10 µM (LOX IMVI) [%] | activity at 10 µM (M14) [%] | activity at 10 µM (HOP-62) [%] | activity at 10 µM (HCT-116) [%] | activity at 10 µM (CAKI-1) [%] | activity at 10 µM (SF-295) [%] | activity at 10 µM (DU-145) [%] | activity at 10 µM (OVCAR-4) [%] | activity at 10 µM (BT-549) [%] | activity at 10 µM (MDA-MB-435) [%] | activity at 10 µM (MDA-MB-468) [%] | activity at 10 µM (SF-268) [%] | activity at 10 µM (NCI/ADR-RES) [%] | activity at 10 µM (A549/ATCC) [%] | other results
O=c1cc(-c2ccccc2)oc2cc(OCCCC[P+](c3ccccc3)(c3ccccc3)c3ccccc3)cc(O)c12 [3a] | -41.7 | -66.7 | -85.2 | -97.6 | -95.7 | -81.8 | -90.1 | -70.1 | -63.6 | -58.1 | -97.1 | -96 | -94.8 | -69.1 | -83 | -67.5 | -84.9 | -59 | -68.3 | -56 | activity at 10 µM (HL-60(TB)): -51.5%
Cc1ccc([P+](CCCCOc2cc(O)c3c(=O)cc(-c4ccccc4)oc3c2)(c2ccc(C)cc2)c2ccc(C)cc2)cc1 [3b] | -43.4 | -55.8 | -75.5 | -88.3 | -80.5 | -79.3 | -91.2 | -75.2 | -62 | 1.29 | -90.4 | -91.3 | -85.9 | -73.1 | -19 | -88.2 | -87 | -61.3 | -65.7 | -49.5 | activity at 10 µM (HL-60(TB)): -60.4%
COc1ccc([P+](CCCCOc2cc(O)c3c(=O)cc(-c4ccccc4)oc3c2)(c2ccc(OC)cc2)c2ccc(OC)cc2)cc1 [3c] | -51.6 | -67.5 | -86.2 | -70.9 | -66.9 | -87.1 | -78.8 | -1.24 | -81.1 | -95.5 | -75.5 | -73.8 | -90.7 | -74.3 | -82.6 | -89.6 | -77.4 | -38.3 | -13.2 | -91.2 | activity at 10 µM (HL-60(TB)): -31.2%
O=c1cc(-c2ccccc2)oc2cc(OCCCC[P+](c3ccc(F)cc3)(c3ccc(F)cc3)c3ccc(F)cc3)cc(O)c12 [3d] | -24.3 | -30.1 | -81.6 | -83.9 | -89.6 | -84.8 | -93.7 | -75.5 | -70.8 | -66.6 | -93.6 | -74 | -79.2 | -48.1 | -76 | -90.8 | -85.7 | -71.6 | 65 | -41.1 | activity at 10 µM (HL-60(TB)): -46.9%
O=c1cc(-c2ccccc2)oc2cc(OCCCC[P+](C3CCCCC3)(C3CCCCC3)C3CCCCC3)cc(O)c12 [3e] | -60.6 | -62.6 | -92 | -83.5 | 87.1 | -91.3 | -90.5 | -82.2 | -82.6 | -62 | -90.8 | -87 | -96.1 | -64.5 | -89.9 | -93.6 | -83.5 | -67.5 | -20.8 | -95.3 | activity at 10 µM (HL-60(TB)): -20.6%
COc1c(C)cc([P+](CCCCOc2cc(O)c3c(=O)cc(-c4ccccc4)oc3c2)(c2cc(C)c(OC)c(C)c2)c2cc(C)c(OC)c(C)c2)cc1C [3f] | -42.5 | -42.9 | -82.3 | -76.5 | -89.2 | -84.7 | -68.7 | -68.3 | -25.2 | -47.6 | -51.6 | -63.6 | -92.7 | -65.5 | -53.4 | -81.9 | -76 | -66.5 | -66.8 | -66.1 | activity at 10 µM (HL-60(TB)): -27.7%
Cc1ccccc1[P+](CCCCOc1cc(O)c2c(=O)cc(-c3ccccc3)oc2c1)(c1ccccc1C)c1ccccc1C [3g] | -98.6 | -98.5 | -95.8 | -98.4 | -97.7 | -99.3 | -97.5 | -97.5 | -98.3 | -94.5 | -97.2 | -98.7 | -97.1 | -98.7 | -98.1 | -98.3 | -99.4 | -97.9 | -97.9 | -94.1 | activity at 10 µM (HL-60(TB)): -97.4%
